# Data reported in article PMC8279981, “A first-in-human, phase 1 study of the NEDD8 activating enzyme E1 inhibitor TAS4464 in patients with advanced solid tumors” (Investigational New Drugs, 2021).
# System: patients with advanced or metastatic solid tumors
# Assay: Phase 1 study: treatment-related adverse events (NCI CTCAE v4.03)
# Type: in vivo, human
# Conditions: for Anemia (treatment-related adverse event) / Blood bilirubin increased (treatment-related adverse event) / Decreased appetite (treatment-related adverse event) / Diarrhea (treatment-related adverse event) / Fatigue (treatment-related adverse event) / GGT increased (treatment-related adverse event) / Hypoalbuminemia (treatment-related adverse event) / Malaise (treatment-related adverse event) / Nausea (treatment-related adverse event) / Neuropathy peripheral (treatment-related adverse event) / Pyrexia (treatment-related adverse event) / Rash (treatment-related adverse event) / Vomiting (treatment-related adverse event) / WBC decreased (treatment-related adverse event) / ALP increased (treatment-related adverse event) / ALT increased (treatment-related adverse event) / AST increased (treatment-related adverse event): Grade ≥ 3
# Method: The highest non-severely toxic dose was derived from a dog toxicology study and was used to calculate a clinical starting dose of 10 mg/m^2, which corresponds to one-sixth of the human-equivalent dose. The maximum tolerated dose (MTD) of TAS4464 was investigated using an accelerated titration design. Initially, the starting TAS4464 dose was 10 mg/m^2 and was followed by an initial accelerated stage (i.e., weekly dosing phase) with 100% dose-step increments (level 1: 10 mg/m^2, level 2: 20 mg/m^2, level 3: 40 mg/m^2, and level 4: 56 mg/m^2). The 100% dose-step increments continued until the occurrence of a grade ≥ 2 drug-related toxicity within Cycle 1; dose-limiting toxicity (DLT) within Cycle 1; the next dose level reaching 60 mg/m^2; or any safety concerns. Thereafter, 40% increments were employed in the standard stage.
# In the standard stage, three to six patients were to be enrolled, and the dose was escalated in 40% increments if none of the first three patients experienced a DLT. If one patient experienced a DLT, three additional patients were to be enrolled at the same dose level. If two of three or two of six patients experienced a DLT, the dose escalation was to be ceased. […] Additionally, DLT criteria regarding abnormal liver function and discontinuation criteria for study drug administration were added. The TAS4464 dose level for Day 1 of Cycle 1 was then set to 40 mg/m^2 (level 3).
# Therefore, TAS4464 was administered every 7 days by 1-h intravenous infusion (± 10 min) at the dose assigned to each level. Study treatment was repeated every 28 days. The dosing regimens of each cohort are summarized in Supplementary Fig. 1.
# Secondary objectives included assessment of AEs, treatment-related AEs, objective response rate (ORR), disease control rate (DCR), progression-free survival (PFS), and PK, pharmacodynamic, and pharmacogenomic (PGx) parameters with TAS4464 administration. The National Cancer Institute Common Terminology Criteria for Adverse Events (NCI CTCAE) v4.03 [17] was used to assess the severity of AEs. […] RECIST v1.1 [16] was used to determine clinical response, and all computed tomography images were assessed by the physician at the study site after completion of the imaging procedure. The ORR was defined as the percentage of patients with the best overall response of complete response (CR) or partial response (PR). The DCR was the percentage of patients with a best overall response of CR, PR, stable disease (SD), or non-CR/non-progressive disease (PD). PFS was defined as the time from the date of enrollment until the date of investigator-assessed radiological disease progression or death due to any cause, whichever occurred first.
# [1] = weekly dosing Level 1 (10 mg/m^2), n = 1
# [2] = weekly dosing Level 2 (20 mg/m^2), n = 1
# [3] = weekly dosing Level 3 (40 mg/m^2), n = 3
# [4] = weekly dosing Level 4 (56 mg/m^2), n = 5
# [5] = weekly dosing with lead-in Level 3 (20 → 40 mg/m^2), n = 3
# [6] = weekly dosing with lead-in Level 4 (20 → 56 mg/m^2), n = 3
structure (smiles),measurement,setting,value
CCOc1cccc(F)c1C#Cc1cn([C@@H]2O[C@H](CNS(N)(=O)=O)[C@@H](O)[C@H]2O)c2ncnc(N)c12 [TAS4464],Anemia (treatment-related adverse event),"Total, N = 16",0 n (%)
same,Blood bilirubin increased (treatment-related adverse event),"Total, N = 16",0 n (%)
same,Decreased appetite (treatment-related adverse event),"Total, N = 16",0 n (%)
same,Diarrhea (treatment-related adverse event),"Total, N = 16",0 n (%)
same,Fatigue (treatment-related adverse event),"Total, N = 16",0 n (%)
same,GGT increased (treatment-related adverse event),"Total, N = 16",3 (18.8) n (%)
same,Hypoalbuminemia (treatment-related adverse event),"Total, N = 16",0 n (%)
same,Malaise (treatment-related adverse event),"Total, N = 16",0 n (%)
same,Nausea (treatment-related adverse event),"Total, N = 16",0 n (%)
same,Neuropathy peripheral (treatment-related adverse event),"Total, N = 16",0 n (%)
same,Pyrexia (treatment-related adverse event),"Total, N = 16",0 n (%)
same,Rash (treatment-related adverse event),"Total, N = 16",0 n (%)
same,Vomiting (treatment-related adverse event),"Total, N = 16",0 n (%)
same,WBC decreased (treatment-related adverse event),"Total, N = 16",1 (6.3) n (%)
same,ALP increased (treatment-related adverse event),[1],0 n (%)
same,ALT increased (treatment-related adverse event),[1],0 n (%)
same,AST increased (treatment-related adverse event),[1],0 n (%)
same,Anemia (treatment-related adverse event),[1],0 n (%)
same,Blood bilirubin increased (treatment-related adverse event),[1],0 n (%)
same,Decreased appetite (treatment-related adverse event),[1],0 n (%)
same,Diarrhea (treatment-related adverse event),[1],0 n (%)
same,Fatigue (treatment-related adverse event),[1],0 n (%)
same,GGT increased (treatment-related adverse event),[1],0 n (%)
same,Hypoalbuminemia (treatment-related adverse event),[1],0 n (%)
same,Malaise (treatment-related adverse event),[1],0 n (%)
same,Nausea (treatment-related adverse event),[1],0 n (%)
same,Neuropathy peripheral (treatment-related adverse event),[1],0 n (%)
same,Pyrexia (treatment-related adverse event),[1],0 n (%)
same,Rash (treatment-related adverse event),[1],0 n (%)
same,Vomiting (treatment-related adverse event),[1],0 n (%)
same,WBC decreased (treatment-related adverse event),[1],0 n (%)
same,ALP increased (treatment-related adverse event),[2],0 n (%)
same,ALT increased (treatment-related adverse event),[2],0 n (%)
same,AST increased (treatment-related adverse event),[2],0 n (%)
same,Anemia (treatment-related adverse event),[2],0 n (%)
same,Blood bilirubin increased (treatment-related adverse event),[2],0 n (%)
same,Decreased appetite (treatment-related adverse event),[2],0 n (%)
same,Diarrhea (treatment-related adverse event),[2],0 n (%)
same,Fatigue (treatment-related adverse event),[2],0 n (%)
same,GGT increased (treatment-related adverse event),[2],0 n (%)
same,Hypoalbuminemia (treatment-related adverse event),[2],0 n (%)
same,Malaise (treatment-related adverse event),[2],0 n (%)
same,Nausea (treatment-related adverse event),[2],0 n (%)
same,Neuropathy peripheral (treatment-related adverse event),[2],0 n (%)
same,Pyrexia (treatment-related adverse event),[2],0 n (%)
same,Rash (treatment-related adverse event),[2],0 n (%)
same,Vomiting (treatment-related adverse event),[2],0 n (%)
same,WBC decreased (treatment-related adverse event),[2],0 n (%)
same,ALP increased (treatment-related adverse event),[3],0 n (%)
same,ALT increased (treatment-related adverse event),[3],1 (33.3) n (%)
same,AST increased (treatment-related adverse event),[3],1 (33.3) n (%)
same,Anemia (treatment-related adverse event),[3],0 n (%)
same,Blood bilirubin increased (treatment-related adverse event),[3],0 n (%)
same,Decreased appetite (treatment-related adverse event),[3],0 n (%)
same,Diarrhea (treatment-related adverse event),[3],0 n (%)
same,Fatigue (treatment-related adverse event),[3],0 n (%)
same,GGT increased (treatment-related adverse event),[3],0 n (%)
same,Hypoalbuminemia (treatment-related adverse event),[3],0 n (%)
same,Malaise (treatment-related adverse event),[3],0 n (%)
same,Nausea (treatment-related adverse event),[3],0 n (%)
same,Neuropathy peripheral (treatment-related adverse event),[3],0 n (%)
same,Pyrexia (treatment-related adverse event),[3],0 n (%)
same,Rash (treatment-related adverse event),[3],0 n (%)
same,Vomiting (treatment-related adverse event),[3],0 n (%)
same,WBC decreased (treatment-related adverse event),[3],0 n (%)
same,ALP increased (treatment-related adverse event),[4],1 (20.0) n (%)
same,ALT increased (treatment-related adverse event),[4],3 (60.0) n (%)
same,AST increased (treatment-related adverse event),[4],3 (60.0) n (%)
same,Anemia (treatment-related adverse event),[4],0 n (%)
same,Blood bilirubin increased (treatment-related adverse event),[4],0 n (%)
same,Decreased appetite (treatment-related adverse event),[4],0 n (%)
same,Diarrhea (treatment-related adverse event),[4],0 n (%)
same,Fatigue (treatment-related adverse event),[4],0 n (%)
same,GGT increased (treatment-related adverse event),[4],3 (60.0) n (%)
same,Hypoalbuminemia (treatment-related adverse event),[4],0 n (%)
same,Malaise (treatment-related adverse event),[4],0 n (%)
same,Nausea (treatment-related adverse event),[4],0 n (%)
same,Neuropathy peripheral (treatment-related adverse event),[4],0 n (%)
same,Pyrexia (treatment-related adverse event),[4],0 n (%)
same,Rash (treatment-related adverse event),[4],0 n (%)
same,Vomiting (treatment-related adverse event),[4],0 n (%)
same,WBC decreased (treatment-related adverse event),[4],1 (20.0) n (%)
same,ALP increased (treatment-related adverse event),[5],0 n (%)
same,ALT increased (treatment-related adverse event),[5],0 n (%)
same,AST increased (treatment-related adverse event),[5],0 n (%)
same,Anemia (treatment-related adverse event),[5],0 n (%)
same,Blood bilirubin increased (treatment-related adverse event),[5],0 n (%)
same,Decreased appetite (treatment-related adverse event),[5],0 n (%)
same,Diarrhea (treatment-related adverse event),[5],0 n (%)
same,Fatigue (treatment-related adverse event),[5],0 n (%)
same,GGT increased (treatment-related adverse event),[5],0 n (%)
same,Hypoalbuminemia (treatment-related adverse event),[5],0 n (%)
same,Malaise (treatment-related adverse event),[5],0 n (%)
same,Nausea (treatment-related adverse event),[5],0 n (%)
same,Neuropathy peripheral (treatment-related adverse event),[5],0 n (%)
same,Pyrexia (treatment-related adverse event),[5],0 n (%)
same,Rash (treatment-related adverse event),[5],0 n (%)
same,Vomiting (treatment-related adverse event),[5],0 n (%)
same,WBC decreased (treatment-related adverse event),[5],0 n (%)
same,ALP increased (treatment-related adverse event),[6],0 n (%)
same,ALT increased (treatment-related adverse event),[6],1 (33.3) n (%)
same,AST increased (treatment-related adverse event),[6],1 (33.3) n (%)
same,Anemia (treatment-related adverse event),[6],0 n (%)
same,Blood bilirubin increased (treatment-related adverse event),[6],0 n (%)
same,Decreased appetite (treatment-related adverse event),[6],0 n (%)
same,Diarrhea (treatment-related adverse event),[6],0 n (%)
same,Fatigue (treatment-related adverse event),[6],0 n (%)
same,GGT increased (treatment-related adverse event),[6],0 n (%)
same,Hypoalbuminemia (treatment-related adverse event),[6],0 n (%)
same,Malaise (treatment-related adverse event),[6],0 n (%)
same,Nausea (treatment-related adverse event),[6],0 n (%)
same,Neuropathy peripheral (treatment-related adverse event),[6],0 n (%)
same,Pyrexia (treatment-related adverse event),[6],0 n (%)
same,Rash (treatment-related adverse event),[6],0 n (%)
same,Vomiting (treatment-related adverse event),[6],0 n (%)
same,WBC decreased (treatment-related adverse event),[6],0 n (%)
same,"ALT increased, Grade ≥ 3 treatment-related AE",all treated patients,31.3%
same,"ALT increased, all-grade treatment-related AE",all treated patients,68.8%
same,"AST increased, Grade ≥ 3 treatment-related AE",all treated patients,31.3%
same,"AST increased, all-grade treatment-related AE",all treated patients,62.5%
same,"alkaline phosphatase (ALP) increased, all-grade treatment-related AE",all treated patients,43.8%
same,"decreased appetite, all-grade treatment-related AE",all treated patients,31.3%
same,"nausea, all-grade treatment-related AE",all treated patients,43.8%
same,drug-induced liver injury by Hy's law criteria,doses of up to 56 mg/m^2,No patients presented with drug-induced liver injury
same,treatment-related serious AE,"weekly dosing level 4, resolved following TAS4464 dose reduction",ALT increased occurring in one patient
same,serious AEs,whole study,Four serious AEs were reported in three patients
same,deaths or fatal AEs,within the study period,No deaths or fatal AEs occurred
